Laboratory results from patent US10414778B2, “Methods for treatment of resistant cancer” (New Mexico Tech University Research Park Corporation, priority 2016, dated 2019).
Where two headings read alike, the source gives them in different places.

Assays:
Format in all cases: cell-based, human
[1] = test system: HeLa cells; test: MTT in vitro growth inhibition assay, HeLa; details: two independent experiments
Method: (§1) Human cancer cell lines were obtained from the American Type Culture Collection (ATCC, Manassas, Va., USA), the European Collection of Cell Culture (ECACC, Salisbury, UK), and the Deutsche Sammlung von Mikroorganismen und Zellkulturen (DSMZ, Braunschweig, Germany). Human cervical adenocarcinoma HeLa cells were cultured in DMEM supplemented with 10% fetal bovine serum (FBS). Human mammary carcinoma MCF-7 cells were cultured in RPMI supplemented with 10% FBS. The U87 cells (ATCC HTB-14) were cultured in DMEM culture medium, while the A549 cells (DSMZ ACC107) were cultured in RPMI culture medium supplemented with 10% heat-inactivated FBS. The GBM Hs683 (ATCC HTB-138) and the T98G (ATCC CRL-1690) cell lines were cultivated in DMEM supplemented with 10% FBS. The GBM U251 cells (ECACC code 09063001) were cultured in 10% MEM. The human uterine sarcoma MES-SA and MES-SA/Dx5 cells were cultured in RPMI-1640 medium supplemented with 10% FBS with MES SA/Dx5 maintained in the presence of 500 nM Doxorubicin (Sigma™). The U373 glioblastoma cells (ECACC 08061901) were cultured in RPMI culture medium supplemented with 10% heat-inactivated FBS.
(§2) Spirodienones 4a-m were subjected to in vitro growth inhibition 3-(4,5-dimethylthiazol-2-yl)-2,5-diphenyltetrazolium bromide (MTT) assays against two cell lines, human HeLa cervical and MCF-7 breast adenocarcinomas.
(§3) All compounds were dissolved in DMSO at a concentration of either 100 mM or 50 mM prior to cell treatment. The cells were trypsinized and seeded at various cell concentrations depending on the cell type. The cells were grown for 24 h to 72 h, treated with compounds at concentrations ranging from 0.001 to 100 μM, and incubated for 48, 72, or 96 h in 100 or 200 μL media depending on the cell line used. Cells treated with 0.1% DMSO were used as a negative control, and cells treated with 1 μM phenyl arsine oxide (PAO) were used as a positive control.
(§4) To determine the activities of the compounds of the invention toward cancer cells, cell lines treated with different compounds were subjected to an in vitro MTT growth assay using human cervical cancer (HeLa) and human adenocarcinoma (MCF-7) cell lines. The MTT growth assay is a colorimetric assay that measures the metabolic activity of cells via reduction of 3-(4,5-dimethylthiazol-2-yl)-2,5-diphenyltetrazolium bromide (MTT). The reduction of MTT occurs in metabolically-active cells and is characterized by a purple color, which can be quantified via spectrophotometry. A higher absorbance reading indicates a metabolically-active cell, while a low absorbance reading indicates low metabolic activity due to, for example, inhibition of cellular proliferation or cell death.
(§5) The values in TABLE 4 are the mean and standard deviation calculated from two independent experiments, which were performed in 4 replicates.

[2] = test system: MCF-7 cells; test: MTT in vitro growth inhibition assay, MCF-7; details: two independent experiments
Method: as §1, §2, §3, §4, §5

[3] = test system: A549 cells; test: MTT growth inhibition, A549 NSCLC; details: 48 hours, up to 100 μM, FIGS. 4-7
Method: as §1, §3
Drug-resistant cell lines (i.e., glioma: Hs683, U373, U251, U87, T98G; lung cancer: A549, H2073; uterine carcinoma: MES-SA/Dx5) were complemented with drug-sensitive cell lines, H1993 lung cancer and MES-SA uterine cancer, which were used as controls. […] The GI50 values were calculated after 48-96 hours of treatment with the indicated compounds in replicate using the MTT growth assay.
Compounds 5l and 5g were further tested using the A549 lung cancer cell line to determine a dose-response effect on apoptosis-resistant cells. (FIGS. 4-7). […] The MTT assay was performed in four replicates after 48 hours of treatment with the indicated compounds relative to a DMSO control.

[4] = Homo sapiens, HeLa, 48 h treatment, ± SD, read-out: cell viability GI50, HeLa
[5] = Homo sapiens, MCF7, MCF-7, 48 h treatment, ± SD, read-out: cell viability GI50, MCF-7
[6] = Homo sapiens, HeLa, Table 4, 48-hour treatment, mean and standard deviation, read-out: HeLa Cell Viability GI50
[7] = Homo sapiens, MCF7, Table 4, 48-hour treatment, mean and standard deviation, read-out: MCF-7 Cell Viability GI50

Structure (SMILES) | GI50 [1, 4] [µM] | GI50 [2, 5] [µM] | GI50 [1, 6] [µM] | GI50 [2, 7] [µM] | also measured
O=C1C=CC2(C=C1)CCN(C(=O)C(F)(F)F)Cc1cccc(OCc3ccccc3)c12 [Compound 4i] | 11 ± 2 | 14 ± 2 |  |  | 
O=C1C=C[C@]23CC[N@](Cc4cscc42)[C@H]3C1 [Compound 5k] |  |  | 25.4 ± 5.2 | 43.6 ± 2.1 | 
O=C1C=C[C@]23CC[N@](Cc4c2ccc2c4OCO2)[C@H]3C1 [Compound 5d] |  |  | 60.5 ± 4.7 | 72.5 ± 2.5 | 
COc1cc2c(cc1OCc1ccccc1)C[N@@]1CC[C@@]23C=CC(=O)C[C@H]13 [Compound 5e] |  |  | 11.8 ± 0.5 | 14.5 ± 1 | 
O=C1C=CC2(C=C1)CCN(C(=O)C(F)(F)F)Cc1cc3c(cc12)OCO3 [Compound 4a] | 24 ± 2 | 30 ± 2 |  |  | 
COc1cc2c(cc1OC)[C@@]13C=CC(=O)C[C@@H]1[N@](CC3)C2 [Compound 5b] |  |  | 63.5 ± 2.7 | > 100 | 
COc1cc2c(cc1OC)C1(C=CC(=O)C=C1)CCN(C(=O)C(F)(F)F)C2 [Compound 4b] | 83 ± 5 | > 100 |  |  | 
O=C1C=CC2(C=C1)CCN(C(=O)C(F)(F)F)Cc1cc(OCc3ccccc3)ccc12 [Compound 4h] | 16 | 40 ± 1 |  |  | 
O=C1C=C[C@]23CC[N@](Cc4cc5c(cc42)OCCO5)[C@H]3C1 [Compound 5c] |  |  | 12.7 ± 2.3 | 18.6 ± 0.8 | 
COc1cc2c(cc1OCc1ccccc1)[C@@]13C=CC(=O)C[C@@H]1[N@](CC3)C2 [Compound 5f] |  |  | 16.7 ± 1.8 | 16.8 ± 0.2 | 
COc1cc([C@@H]2c3cc4c(cc3[C@H](O)[C@H]3COC(=O)[C@H]23)OCO4)cc(OC)c1OC [PODO, podophyllotoxin, reference compound] |  |  |  |  | anti-proliferative activity, dose-response (absorbance at 595 nm) [3]: did not display such potent anti-proliferative activity
O=C1C=C[C@]23CC[N@](Cc4cccc(OCc5ccccc5)c42)[C@H]3C1 [Compound 5i] |  |  | 7.37 ± 0.9 | 11 | 
O=C1C=CC2(C=C1)CCN(C(=O)C(F)(F)F)Cc1cc(OCc3ccccc3)c(OCc3ccccc3)cc12 [Compound 4g] | 17 ± 1 | 25 ± 2 |  |  | 
CO[C@@H]1C=C[C@@]23c4cc5c(cc4CN(C[C@@H]2O)[C@H]3C1)OCO5 [Haemanthamine, reference compound] |  |  |  |  | GI50 ([1]; Table 4, 48-hour treatment, mean and standard deviation, read-out: HeLa Cell Viability GI50): 1.8 ± 0.3 µM; GI50 ([2]; Table 4, 48-hour treatment, mean and standard deviation, read-out: MCF-7 Cell Viability GI50): 2.1 ± 0.2 µM
O=C1C=C[C@]23CC[N@](Cc4cc(OCc5ccccc5)ccc42)[C@H]3C1 [Compound 5h] |  |  | 7.9 ± 0.3 | 14.4 ± 1 | 
O=C1C=C[C@]23CC[N@](Cc4cc5c(cc42)OCO5)[C@H]3C1 [Compound 5a] |  |  | 25.4 ± 3 | 23.9 ± 0.7 | 
O=C1C=CC2(C=C1)CCN(C(=O)C(F)(F)F)Cc1c2ccc2c1OCO2 [Compound 4d] | > 100 | > 100 |  |  | 
COc1cc2c(cc1OCc1ccccc1)C1(C=CC(=O)C=C1)CCN(C(=O)C(F)(F)F)C2 [Compound 4f] | 34 ± 4 | 34 ± 2 |  |  | 
COc1cc2c(cc1OCc1ccccc1)CN(C(=O)C(F)(F)F)CCC21C=CC(=O)C=C1 [Compound 4e] | 38 ± 2 | 48 ± 3 |  |  | 
O=C1C=CC2(C=C1)CCN(C(=O)C(F)(F)F)Cc1cc3c(cc12)OCCO3 [Compound 4c] | 21 ± 1 | 34 ± 12 |  |  | 
